Measurements reported in patent US9045403B2 (Coyote Pharmaceuticals, Inc., priority 2012, dated 2015).

Legend:
[1] = test system: Mouse Neuro2A neuroblastoma cells; assay: Neuro2A cells with neurites after GGTI-298 (Example 16); format: cell-based; conditions: 10 μM, 48 hrs
Experimental: Mouse Neuro2A neuroblastoma cells were cultured in DMEM supplemented with 10% FBS for 24 hrs. […] Then differentiation was induced by retinoic acid in DMEM supplemented with 2% FBS. The cell culture was incubated with a Geranylgeranyl Transferase inhibitor, GGTI-298. […]

[2] = Pharmacokinetics of CNS-102 in rats, IV and oral; format: in vivo; conditions: rat
Experimental: Rats were administered a single dose of CNS-102 either intravenously (12 mg/kg) or orally (24 mg/kg), and blood samples were taken to measure the average plasma concentrations of CNS-102 over time.
The formulation for this study includes the following: […]
AUC(0-last) (min*ng/ml): area under the concentration-time curve from zero up to the last measurable time-point.
lz (1/min): the first order rate constant associated with the terminal (log-linear) portion of the curve, estimated by linear regression of time vs. log concentration.
Terminal Half-Life (t½)=ln(2)/lz: calculated using Lambda_z method to find best fit. If necessary, the concentration-time points were manually selected for use in the calculation. Bolded-italicized concentrations indicate points used for calculation.
AUC(0-inf) (min*ng/ml): Area under the concentration-time curve from zero up to infinity, based on the last observed concentration. Requires lz.

HSP70 = HSP70 expression in cortex and hippocampus by western blot after oral dosing; format: in vivo, rat; parameters: HSP70 expression, treatment average: scale not given here
Experimental: The time course of protein expression, as measured by western blot for HSP70, was determined in triplicate for hippocampus, and cortex tissue samples taken from each of 5 animals per group at each of four time points (24, 48, 72, and 96 h) after treatment with either PBS or 12 mg/kg CNS-102, administered orally. The average expression for each treatment group is calculated at each time point for each tissue using PROC MIXED in SAS and are tabulated, along with the difference (delta) between treatment averages and a p-value comparing the difference to zero, below.

[3] = Cortex, 24 hours after 12 mg/kg oral
[4] = Cortex, 48 hours after 12 mg/kg oral
[5] = Cortex, 72 hours after 12 mg/kg oral
[6] = Cortex, 96 hours after 12 mg/kg oral
[7] = Hippocampus, 24 hours after 12 mg/kg oral
[8] = Hippocampus, 48 hours after 12 mg/kg oral
[9] = Hippocampus, 72 hours after 12 mg/kg oral
[10] = Hippocampus, 96 hours after 12 mg/kg oral

Which “Mean of cell numbers (Arbitrary units)” value [1] does the source give for `CC(=O)CC/C=C(\C)CC/C=C(\C)CC/C=C(\C)CCC=C(C)C` [CNS-102] here?
The value was 0.738 Arbitrary units.

What about the “AUC(0-inf), Average” value ([2]; 12 mg/kg IV) of the same molecule?
The value was 208728 ng·min/mL.

What about the “AUC(0-last), Average” value ([2]; 12 mg/kg IV) of the same molecule?
The value was 115146 ng·min/mL.

And the “C0, Average” value ([2]; 12 mg/kg IV)?
The value was 9144.0 ng/mL.

And the “Vss, Average” value ([2]; 12 mg/kg IV)?
Its value is 9796 mL/kg.

And the “Vz, Average” value ([2]; 12 mg/kg IV)?
Its value is 12039 mL/kg.

And the “t1/2, Average” value ([2]; 12 mg/kg IV)?
Its value is 147.0 min.

What about the “AUC(0-inf), Average” value ([2]; 24 mg/kg oral) of the same molecule?
Its value is 204878 ng·min/mL.

What about the “AUC(0-last), Average” value ([2]; 24 mg/kg oral) of the same molecule?
The value was 189114 ng·min/mL.

And the “Cmax, Average” value ([2]; 24 mg/kg oral)?
The value was 752.9 ng/mL.

And the “Tmax, Average” value ([2]; 24 mg/kg oral)?
The value was 340 min.

What about the “t1/2, Average” value ([2]; 24 mg/kg oral) of the same molecule?
The value was 103 min.

And the “F(0-inf), Average” value ([2]; 24 mg/kg oral vs 12 mg/kg IV)?
The value was 49.1%.

What about the “F(0-last), Average” value ([2]; 24 mg/kg oral vs 12 mg/kg IV) of the same molecule?
Its value is 82.1%.

What about the “HSP70 expression, delta CNS-PBS” value (HSP70; [3]) of the same molecule?
Its value is 0.24.

What about the “HSP70 expression, treatment average” value (HSP70; [3]) of the same molecule?
The value was −0.016.

And the “HSP70 expression, delta CNS-PBS” value (HSP70; [4])?
Its value is 0.11.

And the “HSP70 expression, treatment average” value (HSP70; [4])?
The value was −0.45.

And the “HSP70 expression, delta CNS-PBS” value (HSP70; [5])?
Its value is 0.13.

What about the “HSP70 expression, treatment average” value (HSP70; [5]) of the same molecule?
Its value is 0.14.

What about the “HSP70 expression, delta CNS-PBS” value (HSP70; [6]) of the same molecule?
The value was 0.19.

What about the “HSP70 expression, treatment average” value (HSP70; [6]) of the same molecule?
Its value is 0.04.

And the “HSP70 expression, delta CNS-PBS” value (HSP70; [7])?
Its value is −0.088.

What about the “HSP70 expression, treatment average” value (HSP70; [7]) of the same molecule?
Its value is −0.159.

What about the “HSP70 expression, delta CNS-PBS” value (HSP70; [8]) of the same molecule?
The value was 0.2.

And the “HSP70 expression, treatment average” value (HSP70; [8])?
The value was 0.02.

And the “HSP70 expression, delta CNS-PBS” value (HSP70; [9])?
The value was 0.14.

And the “HSP70 expression, treatment average” value (HSP70; [9])?
The value was −0.06.

What about the “HSP70 expression, delta CNS-PBS” value (HSP70; [10]) of the same molecule?
The value was 0.17.

What about the “HSP70 expression, treatment average” value (HSP70; [10]) of the same molecule?
Its value is −0.32.
